Source: patent publication US20120252852A1 (SANOFI, priority 2011, published 2012)

Columns and labels:
[1] = Level of impurities in dependency on Otamixaban concentration and autoclaving (HPLC); format: physicochemical; conditions: pH 4.2; 50 mg/mL; vial 5 mL; 20 min 123° C.; 3 autoclaving
Procedure: Liquid pharmaceutical compositions were prepared containing 1, 5 or 50 mg/mL
The appropriate pH value was adjusted by using sodium hydroxide solution (1 M sodium hydroxide) or diluted hydrochloric acid (1 M hydrochloric acid).

[2] = Level of impurities in dependency on pH and storage time (1 mg/mL, autoclaved one time, stored at 40° C. and 75% RH, HPLC); format: physicochemical
Procedure: The appropriate pH value was adjusted by using sodium hydroxide solution (1 M sodium hydroxide) or diluted hydrochloric acid (1 M hydrochloric acid). The prepared vials were autoclaved one time and were stored at 40° C. and 75% RH (relative humidity).

[3] = Level of impurities in dependency on citric acid (22.8 mmol/L) and storage time (1 mg/mL, autoclaved once, 40° C. and 75% RH, HPLC); format: physicochemical
Procedure: The prepared vials were autoclaved once and were stored at 40° C. and 75% RH (relative humidity).

free factor Xa = free factor Xa (Homo sapiens, UniProt P00742); conditions: cited from earlier work
[4] = biological target: factor Xa assembled in the prothrombinase complex (Factor Xa, Factor Va, calcium and phospholipid) (Homo sapiens, UniProt P00742); conditions: cited from earlier work
thrombosis = conditions: rodent, canine and porcine models; cited from earlier work
[5] = humans; cited from earlier work
[6] = test system: prothrombin fragments 1+2; conditions: highest dose regimen; versus unfractionated heparin; cited from earlier work
factor Xa = biological target: T1, factor Xa (Homo sapiens, UniProt P00742); conditions: patients with stable coronary artery disease taking usual comedication; cited from earlier work
T1 construct: host or cells: blood of patients (in vivo / ex vivo)
T1 sequence (P00742 235-488 limits assumed): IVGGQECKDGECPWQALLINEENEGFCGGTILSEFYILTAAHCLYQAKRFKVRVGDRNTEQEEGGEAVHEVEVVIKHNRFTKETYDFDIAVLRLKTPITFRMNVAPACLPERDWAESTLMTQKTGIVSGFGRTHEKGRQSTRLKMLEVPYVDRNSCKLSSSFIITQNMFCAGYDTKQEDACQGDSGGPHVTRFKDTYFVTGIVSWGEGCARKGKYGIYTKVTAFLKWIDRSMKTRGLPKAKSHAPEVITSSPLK
T1 sequence (P00742 41-179 limits assumed): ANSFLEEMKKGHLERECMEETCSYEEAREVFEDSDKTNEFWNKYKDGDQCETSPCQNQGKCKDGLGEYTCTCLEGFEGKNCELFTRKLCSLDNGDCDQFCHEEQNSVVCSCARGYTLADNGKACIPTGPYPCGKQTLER

Sequence of factor Xa assembled in the prothrombinase complex (Factor Xa, Factor Va, calcium and phospholipid) (P00742 235-488 limits assumed): as the sequence (P00742 235-488 limits assumed) above
Sequence of factor Xa assembled in the prothrombinase complex (Factor Xa, Factor Va, calcium and phospholipid) (P00742 41-179 limits assumed): as the sequence (P00742 41-179 limits assumed) above
Sequence of factor Xa assembled in the prothrombinase complex (Factor Xa, Factor Va, calcium and phospholipid) (P12259 29-737 partner limits assumed): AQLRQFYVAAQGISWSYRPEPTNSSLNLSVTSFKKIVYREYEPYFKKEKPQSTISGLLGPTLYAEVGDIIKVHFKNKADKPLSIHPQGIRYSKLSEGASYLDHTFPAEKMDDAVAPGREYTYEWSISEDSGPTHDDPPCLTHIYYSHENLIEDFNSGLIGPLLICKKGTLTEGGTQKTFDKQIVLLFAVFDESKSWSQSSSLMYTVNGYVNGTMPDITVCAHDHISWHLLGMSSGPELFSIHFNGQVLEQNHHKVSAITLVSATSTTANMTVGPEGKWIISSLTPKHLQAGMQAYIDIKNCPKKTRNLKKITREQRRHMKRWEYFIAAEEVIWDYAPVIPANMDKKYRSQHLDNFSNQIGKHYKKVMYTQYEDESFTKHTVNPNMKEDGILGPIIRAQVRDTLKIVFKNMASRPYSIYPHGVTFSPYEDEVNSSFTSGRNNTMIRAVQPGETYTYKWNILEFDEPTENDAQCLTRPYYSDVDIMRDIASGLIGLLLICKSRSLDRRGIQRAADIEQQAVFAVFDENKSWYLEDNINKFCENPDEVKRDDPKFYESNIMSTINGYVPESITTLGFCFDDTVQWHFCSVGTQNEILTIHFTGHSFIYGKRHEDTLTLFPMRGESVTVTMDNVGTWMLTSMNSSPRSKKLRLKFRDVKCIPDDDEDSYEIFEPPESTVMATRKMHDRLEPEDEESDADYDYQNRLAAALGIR
Sequence of factor Xa assembled in the prothrombinase complex (Factor Xa, Factor Va, calcium and phospholipid) (P12259 1574-2224 partner limits assumed): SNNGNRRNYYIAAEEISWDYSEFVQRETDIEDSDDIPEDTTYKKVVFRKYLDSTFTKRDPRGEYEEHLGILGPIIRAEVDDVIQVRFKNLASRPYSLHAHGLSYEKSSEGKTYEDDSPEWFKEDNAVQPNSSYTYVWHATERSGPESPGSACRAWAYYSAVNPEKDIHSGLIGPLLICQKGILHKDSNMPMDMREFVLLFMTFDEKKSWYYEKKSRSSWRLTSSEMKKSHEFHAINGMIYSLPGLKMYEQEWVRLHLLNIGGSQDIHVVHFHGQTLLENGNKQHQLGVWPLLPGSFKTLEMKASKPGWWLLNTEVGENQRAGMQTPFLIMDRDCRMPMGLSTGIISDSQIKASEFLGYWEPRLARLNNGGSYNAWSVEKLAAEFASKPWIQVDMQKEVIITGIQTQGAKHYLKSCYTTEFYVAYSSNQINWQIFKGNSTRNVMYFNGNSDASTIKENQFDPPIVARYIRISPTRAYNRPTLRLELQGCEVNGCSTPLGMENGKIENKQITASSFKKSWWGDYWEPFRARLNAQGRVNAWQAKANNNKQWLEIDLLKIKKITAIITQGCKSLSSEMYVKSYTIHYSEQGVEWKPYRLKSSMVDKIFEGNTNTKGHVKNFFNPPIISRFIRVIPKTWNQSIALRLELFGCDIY
Sequence of free factor Xa (P00742 235-488 limits assumed): as the sequence (P00742 235-488 limits assumed) above
Sequence of free factor Xa (P00742 41-179 partner limits assumed): as the sequence (P00742 41-179 limits assumed) above

COC(=O)[C@H](Cc1cccc(C(=N)N)c1)[C@@H](C)NC(=O)c1ccc(-c2cc[n+]([O-])cc2)cc1 (mixture of isomers) [Otamixaban, Methyl (2R,3R)-2-{3-[amino(imino)methyl]benzyl}-3-{[4-(1-oxidopyridin-4-yl)benzoyl]amino}butanoate]
Increase of Formula III (carbamoyl-benzyl butyric acid methyl ester) [1]: 2.7% | Level of Formula II versus pH over storage time ([2]; 40° C. and 75% RH): increased faster with lower pH | Levels of Formula III versus pH over storage time ([2]; 40° C. and 75% RH): parallel at different pH values | Increase of Formula II (carbamimidoyl-benzyl butyric acid) ([2]; pH 2.5, storage 0 months): 0.33% | Increase of Formula II (carbamimidoyl-benzyl butyric acid) ([2]; pH 2.5, storage 1 month): 1.47% | Increase of Formula II (carbamimidoyl-benzyl butyric acid) ([2]; pH 2.5, storage 3 months): 3.73% | Increase of Formula II (carbamimidoyl-benzyl butyric acid) ([2]; pH 2.5, storage 6 months): 7.10% | Increase of Formula II (carbamimidoyl-benzyl butyric acid) ([2]; pH 3.0, storage 0 months): 0.18% | Increase of Formula II (carbamimidoyl-benzyl butyric acid) ([2]; pH 3.0, storage 1 month): 0.58% | Increase of Formula II (carbamimidoyl-benzyl butyric acid) ([2]; pH 3.0, storage 3 months): 1.39% | Increase of Formula II (carbamimidoyl-benzyl butyric acid) ([2]; pH 3.0, storage 6 months): 2.61% | Increase of Formula II (carbamimidoyl-benzyl butyric acid) ([2]; pH 3.2, storage 0 months): 0.15% | Increase of Formula III (carbamoyl-benzyl butyric acid methyl ester) ([2]; pH 3.2, storage 0 months): 0.76% | Increase of Formula II (carbamimidoyl-benzyl butyric acid) ([2]; pH 3.2, storage 1 month): 0.41% | Increase of Formula III (carbamoyl-benzyl butyric acid methyl ester) ([2]; pH 3.2, storage 1 month): 0.85% | Increase of Formula II (carbamimidoyl-benzyl butyric acid) ([2]; pH 3.2, storage 3 months): 0.93% | Increase of Formula III (carbamoyl-benzyl butyric acid methyl ester) ([2]; pH 3.2, storage 3 months): 1.00% | Increase of Formula II (carbamimidoyl-benzyl butyric acid) ([2]; pH 3.2, storage 6 months): 1.74% | Increase of Formula III (carbamoyl-benzyl butyric acid methyl ester) ([2]; pH 3.2, storage 6 months): 1.24% | Increase of Formula II (carbamimidoyl-benzyl butyric acid) ([2]; pH 3.5, storage 0 months): 0.12% | Increase of Formula II (carbamimidoyl-benzyl butyric acid) ([2]; pH 3.5, storage 1 month): 0.27% | Increase of Formula II (carbamimidoyl-benzyl butyric acid) ([2]; pH 3.5, storage 3 months): 0.55% | Increase of Formula II (carbamimidoyl-benzyl butyric acid) ([2]; pH 3.5, storage 6 months): 0.99% | Increase of Formula II (carbamimidoyl-benzyl butyric acid) ([2]; pH 3.7, storage 0 months): 0.11% | Increase of Formula II (carbamimidoyl-benzyl butyric acid) ([2]; pH 3.7, storage 1 month): 0.22% | Increase of Formula II (carbamimidoyl-benzyl butyric acid) ([2]; pH 3.7, storage 3 months): 0.42% | Increase of Formula II (carbamimidoyl-benzyl butyric acid) ([2]; pH 3.7, storage 6 months): 0.72% | Increase of Formula II (carbamimidoyl-benzyl butyric acid) ([2]; pH 4.0, storage 0 months): 0.12% | Increase of Formula II (carbamimidoyl-benzyl butyric acid) ([2]; pH 4.0, storage 1 month): 0.18% | Increase of Formula II (carbamimidoyl-benzyl butyric acid) ([2]; pH 4.0, storage 3 months): 0.32% | Increase of Formula II (carbamimidoyl-benzyl butyric acid) ([2]; pH 4.0, storage 6 months): 0.52% | Increase of Formula II (carbamimidoyl-benzyl butyric acid) ([2]; pH 4.2, storage 0 months): 0.13% | Increase of Formula II (carbamimidoyl-benzyl butyric acid) ([2]; pH 4.2, storage 1 month): 0.18% | Increase of Formula II (carbamimidoyl-benzyl butyric acid) ([2]; pH 4.2, storage 3 months): 0.27% | Increase of Formula II (carbamimidoyl-benzyl butyric acid) ([2]; pH 4.2, storage 6 months): 0.43% | Increase of Formula II (carbamimidoyl-benzyl butyric acid) ([2]; pH 4.5, storage 0 months): 0.15% | Increase of Formula II (carbamimidoyl-benzyl butyric acid) ([2]; pH 4.5, storage 1 month): 0.20% | Increase of Formula II (carbamimidoyl-benzyl butyric acid) ([2]; pH 4.5, storage 3 months): 0.30% | Increase of Formula II (carbamimidoyl-benzyl butyric acid) ([2]; pH 4.5, storage 6 months): 0.44% | Increase of Formula II (carbamimidoyl-benzyl butyric acid) ([2]; pH 4.7, storage 0 months): 0.20% | Increase of Formula II (carbamimidoyl-benzyl butyric acid) ([2]; pH 4.7, storage 1 month): 0.25% | Increase of Formula II (carbamimidoyl-benzyl butyric acid) ([2]; pH 4.7, storage 3 months): 0.36% | Increase of Formula II (carbamimidoyl-benzyl butyric acid) ([2]; pH 4.7, storage 6 months): 0.52% | Total impurities ([3]; pH 3.0/3.1 (start/1 month), 1 month): 1.33% | Total impurities ([3]; pH 3.0/3.1 (start/1 month), start): 0.87% | Total impurities ([3]; pH 3.6/3.6 (start/1 month), 1 month): 1.06% | Total impurities ([3]; pH 3.6/3.6 (start/1 month), start): 0.83% | Total impurities ([3]; pH 4.0/4.1 (start/1 month), 1 month): 1.17% | Total impurities ([3]; pH 4.0/4.1 (start/1 month), start): 0.98% | Total impurities ([3]; pH 4.6/4.6 (start/1 month), 1 month): 1.75% | Total impurities ([3]; pH 4.6/4.6 (start/1 month), start): 1.51% | Total impurities ([3]; pH 5.1/5.1 (start/1 month), 1 month): 3.80% | Total impurities ([3]; pH 5.1/5.1 (start/1 month), start): 3.57% | Total impurities ([3]; pH 6.1/6.1 (start/1 month), 1 month): 28.16% | Total impurities ([3]; pH 6.1/6.1 (start/1 month), start): 27.12% | Inhibition of free factor Xa (free factor Xa): inhibited | Inhibition of factor Xa assembled in the prothrombinase complex [4]: inhibited | Efficacy in models of thrombosis (thrombosis): highly efficacious | Clinical efficacy, safety and tolerability [5]: efficacious, safe and well tolerated | Reduction of prothrombin fragments 1+2 [6]: reduced prothrombin fragments 1+2 significantly more than unfractionated heparin | Factor Xa inhibition in patients (factor Xa): dose-dependent, rapid direct factor Xa inhibition
